Data as given in PMC4199533, “Toxicological and biochemical characterizations of AChE in phosalone-susceptible and resistant populations of the common pistachio psyllid, Agonoscena pistaciae” (Journal of Insect Science, 2014).
Read-outs that look alike come from different tables or passages of the source.

Experiments:
[1] = test system: T1, AChE (Bam population, susceptible); assay: Ellman microplate kinetics, Michaelis-Menten fit; assay type: biochemical, Agonoscena pistaciae; conditions: DTNB; pH 7.0; 37°C; 405 nm; apparent, total AChE
T1 construct: gene AChE1
Text: Ellman microplate kinetics, Michaelis-Menten fit on AChE (Bam population, susceptible)

[2] = test system: T1, AChE (Bam population, susceptible); assay: Ellman microplate inhibition assay; assay type: biochemical, Agonoscena pistaciae; conditions: pH 7.0; 10 min preincubation at room temperature; thiocholine substrate and DTNB; covalent; read-out: I50
Text: Ellman microplate inhibition assay on AChE (Bam population, susceptible)

[3] = test system: T2, AChE (Rafsanjan population, resistant; modified AChE); conditions: read-out: I50, pH 7.0, 10 min preincubation at room temperature, thiocholine substrate and DTNB, covalent
T2 construct: gene AChE1
Text: Ellman microplate inhibition assay on AChE (Rafsanjan population, resistant; modified AChE)

[4] = test system: T2, AChE (Rafsanjan population, resistant; modified AChE); conditions: DTNB; pH 7.0; 37°C; 405 nm; apparent, total AChE
Text: Ellman microplate kinetics, Michaelis-Menten fit on AChE (Rafsanjan population, resistant; modified AChE)

| SMILES | Km [1] [µM] | IC50 [2] [µM] | IC50 [3] [µM] | Km [4] [µM] | IC50 ([3]; stated gain) [µM] |
| --- | --- | --- | --- | --- | --- |
| CC(=O)SCC[N+](C)(C)C [ATC, acetylthiocholine iodide] | 1.25 ± 0.05 | – | – | – | – |
| CCCC(=O)SCC[N+](C)(C)C [BTC, butyrylthiocholine iodide] | 4.3 ± 0.14 | – | – | – | – |
| CNC(=O)Oc1cccc(C)c1 [MTMC, m-tolyl methyl carbamate] | – | 20430 ± 170 | 9450 ± 30 | – | – |
| CCC(=O)SCC[N+](C)(C)C [PTC, propionylthiocholine iodide] | 1.4 ± 0.11 | – | – | 4.1 ± 0.06 | – |
| CNC(=O)O/N=C/C(C)(C)SC [aldicarb] | – | 2590 ± 20 | 2850 ± 60 | – | – |
| CNC(=O)Oc1cccc2ccccc12 [carbaryl] | – | 2360 ± 20 | 2050 ± 30 | – | – |
| CNC(=O)Oc1cccc2c1OC(C)(C)C2 [carbofuran] | – | 380 ± 10 | 160 ± 10 | – | – |
| CNC(=O)/C=C(\C)OP(=O)(OC)OC [monocrotophos] | – | 230 ± 10 | – | – | 5280 ± 40 |
| CCN(CC)C(=O)C(Cl)=C(C)OP(=O)(OC)OC [phosphamidon] | – | 220 ± 10 | – | – | 4790 ± 20 |
| CNC(=O)Oc1ccccc1OC(C)C [propoxur] | – | 1060 ± 30 | 830 ± 10 | – | – |
